Patent US20210276967A1 (OSPEDALE SAN RAFFAELE S.R.L., priority 2018, published 2021)
pEC50: −log10 of the molar value.

System: HBV
Assay: HBV inhibition in HepAD38 cells, extracellular HBV DNA by direct qPCR
Assay type: cell-based, hepatitis B virus
Details: Hepatitis B virus; 0.1 μM, HepAD38, 96 hours; read-out: HBV inhibition % (conc μM)
From the text: HepAD38 cell line (Ladner et al., Antimicrob Agents Chemother, 1997, 41, 1715-20) was used for HBV inhibition assays. HepAD38 is a subclone, derived from hepatoblastoma cell line HepG2 (ATCC® Number: HB-8065™), that expresses HBV genome under the transcriptional control of a tetracycline-responsive promoter in a TET-OFF system: addition of tetracycline (TET) or doxycycline suppresses HBV replication, while its removal switches on the process allowing HBV viral particles release in the cell supernatant. HepAD38 cell line is maintained in DMEM/F12, supplemented with 10% of fetal bovine serum, 1% of glutamine, 1% of penicillin/streptomycin, 0.4 mg/ml G418 and 0.3 ug/ml tetracycline. For the HBV inhibition assay, doxycycline-free medium is used in order to allow virion production.
HBV inhibition activity in vitro was performed in 96 multiwell plates. During the initial (primary) screening compounds were first tested in triplicates at concentrations of 0.1 μM, 0.5 μM and 1 μM. For selected compounds, an 8-point dose-response curve was obtained using 1:2 serial dilutions (starting from 2.5 μM, 1.25 μM or 0.4 μM, depending on the degree of inhibition observed during the primary screening). From the dose-response curves, half maximal effective concentration (EC50) could be calculated (see also below).
In more detail, compounds—typically dissolved in DMSO stock solutions—were diluted to 2× the final desired concentration in 100 μl of the above medium (without doxycycline) and plated in three replicates in the 96-well plates.
Simultaneously, HepAD38 cells—extensively pre-washed in tetracycline-free medium in order to induce HBV production—were suspended at 2*10^4 cells in 100 μl of tetracycline-free medium and added to each well of the plate, to yield a final assay volume of 200 μl.
DMSO, used for stock solutions and compounds dilutions, is always present in the assays at a final concentration of 0.5%.
Plates were then incubated 96 hours at 37° C. and then subjected to cell viability assays and extracellular HBV quantification, in order to evaluate both the cytotoxic potential and the anti-viral activity of compounds.
Cytotoxicity was assessed by a commercial fluorescence assay that measures the metabolic activity of cells, directly related to cell viability (Cell Titer Blue, Promega). For each compound, cytotoxicity was evaluated at the same concentration employed to evaluate its anti-HBV activity. Anti-HBV activity was evaluated by quantification of extracellular HBV DNA with direct qPCR. In particular, supernatant was collected and centrifuged for cell debris clarification, viral DNA was extracted from virions by addition of lysis buffer (1 mM 1,4-dithiothreitol, 0.2% sodium dodecyl sulphate) and incubated at 95° C. for 10 min. Samples were then diluted 1:40 and real time PCR amplification was performed with SYBR green assay (Power SYBR™ Green PCR Master Mix-Thermo Fisher Scientific) and specific HBV primer (HBV-DF:5′-[…]-3′ (SEQ ID No. 1), HBV-DR:5′-[…]-3′ (SEQ ID No. 2)).
All HBV inhibition or antiviral activity data are typically reported in percent (%) relative to a non-treated reference sample. Excel and Graphpad Prism programs are typically used for data elaboration and EC50 calculation.
With Cc1cc(N)c(S(=O)(=O)N[C@H](C)C(F)(F)F)cc1C(=O)Nc1cc(F)c(F)c(F)c1 [Example E63, (R)-4-amino-2-methyl-N-(3,4,5-trifluorophenyl)-5-(N-(1,1,1-trifluoropropan-2-yl)sulfamoyl)benzamide] the inhibition at 0.1 µM was greater than 50%. Compound Nc1ncc(C(=O)Nc2cc(F)c(F)c(F)c2)cc1S(=O)(=O)N[C@H]1CC[C@H](O)CC1 [Example E58, trans-6-amino-5-(N-(4-hydroxycyclohexyl)sulfamoyl)-N-(3,4,5-trifluorophenyl)nicotinamide] has an inhibition at 0.1 µM of less than 50%. In the case of Cc1cc(N)c(S(N)(=O)=O)cc1C(=O)Nc1cc(F)c(F)c(Cl)c1 [Example E65, 4-amino-N-(3-chloro-4,5-difluorophenyl)-2-methyl-5-sulfamoylbenzamide], the inhibition at 0.1 µM was greater than 50%.

Same assay, conditions: Hepatitis B virus; 0.5 μM, HepAD38, 96 hours; read-out: HBV inhibition % (conc μM)
With Nc1ccc(C(=O)Nc2cc(F)c(F)c(F)c2)cc1S(=O)(=O)NC(CO)CO [Example E48, 4-amino-3-(N-(1,3-dihydroxypropan-2-yl)sulfamoyl)-N-(3,4,5-trifluorophenyl)benzamide] the inhibition at 0.5 µM was less than 50%. In the case of CC(NS(=O)(=O)c1cc(C(=O)Nc2cc(F)c(F)c(F)c2)ccc1N)c1ccccn1 (stereo not drawn) [Example E42, 4-amino-3-(N-(1-(pyridin-2-yl)ethyl)sulfamoyl)-N-(3,4,5-trifluorophenyl)benzamide], the inhibition at 0.5 µM was less than 50%. For Nc1ccc(C(=O)Nc2cc(F)c(F)c(F)c2)cc1S(=O)(=O)NC1CCNCC1 [Example E28, 4-amino-3-(N-(piperidin-4-yl)sulfamoyl)-N-(3,4,5-trifluorophenyl)benzamide], the inhibition at 0.5 µM was less than 50%. Cc1cc(N)c(S(N)(=O)=O)cc1C(=O)Nc1ccc(Cl)nc1 [Example E66, 4-amino-N-(6-chloropyridin-3-yl)-2-methyl-5-sulfamoylbenzamide] showed an inhibition at 0.5 µM of less than 50%. Compound N#Cc1cc(NC(=O)c2ccc(N)c(S(N)(=O)=O)c2)ccc1F [Example E8, 4-amino-N-(3-cyano-4-fluorophenyl)-3-sulfamoylbenzamide] has an inhibition at 0.5 µM greater than 50%. In the case of Nc1ccc(C(=O)Nc2ccc(F)c(C(F)F)c2)cc1S(N)(=O)=O [Example E9, 4-amino-N-(3-(difluoromethyl)-4-fluorophenyl)-3-sulfamoylbenzamide], the inhibition at 0.5 µM was greater than 50%. In the case of Nc1ccc(C(=O)Nc2cc(F)c(F)c(F)c2)cc1S(=O)(=O)N[C@H]1CC[C@@H](O)CC1 [Example E22, cis-4-amino-3-(N-(4-hydroxycyclohexyl)sulfamoyl)-N-(3,4,5-trifluorophenyl)benzamide], the inhibition at 0.5 µM was greater than 50%. Compound Nc1ccc(C(=O)Nc2ccc(F)c(Cl)c2)cc1S(N)(=O)=O [Example E10, 4-amino-N-(3-chloro-4-fluorophenyl)-3-sulfamoylbenzamide] has an inhibition at 0.5 µM greater than 50%. Compound Nc1ncc(C(=O)Nc2cc(F)c(F)c(F)c2)cc1S(N)(=O)=O [Example E37, 6-amino-5-sulfamoyl-N-(3,4,5-trifluorophenyl)nicotinamide] has an inhibition at 0.5 µM of less than 50%. Nc1ccc(C(=O)Nc2ccc(F)c(C(F)F)c2)cc1S(=O)(=O)N[C@H]1CC[C@H](O)CC1 [Example E44, 4-amino-N-(3-(difluoromethyl)-4-fluorophenyl)-3-(N-((1r,4r)-4-hydroxycyclohexyl)sulfamoyl)benzamide] showed an inhibition at 0.5 µM greater than 50%. Nc1ccc(C(=O)Nc2cc(F)c(F)c(F)c2)cc1S(=O)(=O)N[C@H]1C[C@H](O)C1 [Example E25] gave an inhibition at 0.5 µM greater than 50%. Compound Nc1ccc(C(=O)Nc2ccc(F)c(F)c2)cc1S(N)(=O)=O [Example E4, 4-amino-N-(3,4-difluorophenyl)-3-sulfamoylbenzamide] has an inhibition at 0.5 µM greater than 50%. For Cc1cc(N)c(S(=O)(=O)N[C@H]2CC[C@H](O)CC2)cc1C(=O)Nc1cc(F)c(F)c(F)c1 [Example E23, trans-4-amino-5-(N-(4-hydroxycyclohexyl)sulfamoyl)-2-methyl-N-(3,4,5-trifluorophenyl)benzamide], the inhibition at 0.5 µM was greater than 50%. In the case of Nc1ccc(C(=O)Nc2cc(F)c(F)c(F)c2)cc1S(=O)(=O)N1CCC(O)(CO)CC1 [Example E50, 4-amino-3-((4-hydroxy-4-(hydroxymethyl)piperidin-1-yl)sulfonyl)-N-(3,4,5-trifluorophenyl)benzamide], the inhibition at 0.5 µM was greater than 50%. Nc1ccc(C(=O)Nc2cc(F)c(F)c(F)c2)cc1S(=O)(=O)N[C@@H]1CC[C@@H](O)C1 (relative stereo) [Example E57, trans-4-amino-3-(N-(3-hydroxycyclopentyl)sulfamoyl)-N-(3,4,5-trifluorophenyl)benzamide] gave an inhibition at 0.5 µM greater than 50%. In the case of Cc1c(F)cc(NC(=O)c2ccc(N)c(S(N)(=O)=O)c2)cc1F [Example E13, 4-amino-N-(3,5-difluoro-4-methylphenyl)-3-sulfamoylbenzamide], the inhibition at 0.5 µM was less than 50%. Nc1ccc(S(N)(=O)=O)cc1C(=O)Nc1cc(F)c(F)c(F)c1 [Example E59, 2-amino-5-sulfamoyl-N-(3,4,5-trifluorophenyl)benzamide] gave an inhibition at 0.5 µM of less than 50%. Nc1ccc(C(=O)Nc2cc(F)c(F)c(F)c2)cc1S(=O)(=O)NCC1(O)CCCCC1 [Example E39, 4-amino-3-(N-((1-hydroxycyclohexyl)methyl)sulfamoyl)-N-(3,4,5-trifluorophenyl)benzamide] showed an inhibition at 0.5 µM greater than 50%. Work on Nc1ccc(C(=O)Nc2ccc(F)c(Cl)c2)cc1S(=O)(=O)N1CC(O)C1 [Example E55, 4-amino-N-(3-chloro-4-fluorophenyl)-3-((3-hydroxyazetidin-1-yl)sulfonyl)benzamide] yielded an inhibition at 0.5 µM greater than 50%. With Nc1ccc(C(=O)Nc2cc(F)c(F)c(F)c2)cc1S(=O)(=O)Nc1ccncc1 [Example E31, 4-amino-3-(N-(pyridin-4-yl)sulfamoyl)-N-(3,4,5-trifluorophenyl)benzamide] the inhibition at 0.5 µM was less than 50%. Cc1cc(N)c(S(N)(=O)=O)cc1C(=O)Nc1ccc(F)c(C#N)c1 [Example E69, 4-amino-N-(3-cyano-4-fluorophenyl)-2-methyl-5-sulfamoylbenzamide] showed an inhibition at 0.5 µM greater than 50%. Compound Cc1cc(N)c(S(N)(=O)=O)cc1C(=O)Nc1ccc(F)c(C(F)(F)F)c1 [Example E67, 4-amino-N-(4-fluoro-3-(trifluoromethyl)phenyl)-2-methyl-5-sulfamoylbenzamide] has an inhibition at 0.5 µM greater than 50%.

Same assay, conditions: Hepatitis B virus; 1 μM, HepAD38, 96 hours; read-out: HBV inhibition % (conc μM)
CNS(=O)(=O)c1cc(C(=O)Nc2cc(F)c(F)c(F)c2)ccc1N [Example E2, 4-amino-3-(N-methylsulfamoyl)-N-(3,4,5-trifluorophenyl)benzamide] showed an inhibition at 1 µM greater than 50%. With CC(C)(C)OC(=O)N[C@H]1CCC[C@H]1NS(=O)(=O)c1cc(C(=O)Nc2cc(F)c(F)c(F)c2)ccc1N [Example E52, tert-butyl ((1S,2R)-2-((2-amino-5-((3,4,5-trifluorophenyl)carbamoyl)phenyl)sulfonamido)cyclopentyl)carbamate] the inhibition at 1 µM was greater than 50%. Work on Nc1cc(Br)c(C(=O)Nc2cc(F)c(F)c(F)c2)cc1S(N)(=O)=O [Example E6, 4-amino-2-bromo-5-sulfamoyl-N-(3,4,5-trifluorophenyl)benzamide] yielded an inhibition at 1 µM greater than 50%.

Same assay, conditions: Hepatitis B virus; HepAD38, 8-point dose-response; read-out: HBV inh EC50
In the case of Nc1ccc(C(=O)Nc2cc(F)c(F)c(F)c2)cc1S(=O)(=O)N[C@H]1CC[C@H](O)CC1 [Example E21, trans-4-amino-3-(N-(4-hydroxycyclohexyl)sulfamoyl)-N-(3,4,5-trifluorophenyl)benzamide], the pEC50 was greater than 6.00. With Nc1ccc(S(=O)(=O)N[C@H]2CC[C@H](O)CC2)cc1C(=O)Nc1cc(F)c(F)c(F)c1 [Example E61, trans-2-amino-5-(N-(4-hydroxycyclohexyl)sulfamoyl)-N-(3,4,5-trifluorophenyl)benzamide] the pEC50 was greater than 6.00. Nc1ccc(S(=O)(=O)N2CCC(O)CC2)cc1C(=O)Nc1cc(F)c(F)c(F)c1 [Example E62, 2-amino-5-((4-hydroxypiperidin-1-yl)sulfonyl)-N-(3,4,5-trifluorophenyl)benzamide] gave a pEC50 greater than 6.00.

System: HBV
Assay: not given
Details: Phase 1b clinical studies; cited from earlier work
For O=C(Nc1cc(F)c(F)c(F)c1)c1ccc(F)c(S(=O)(=O)N2CCC(O)CC2)c1 [NVR3-778], the “reduction in HBV DNA” value is listed as “significant reduction” and the “reduction in serum HBV RNA” value is listed as “significant reduction”.
